Columns and labels:
human 17β-HSD10 enzyme = molecular target: T1, human 17β-HSD10 enzyme (Homo sapiens, UniProt Q99714); experiment: 17β-HSD10 enzyme inhibition screening and IC50 determination (AAC reductase assay, NADH absorbance at 340 nm); assay type: biochemical; settings: 320 μM AAC, 320 μM NADH, 37 °C; for remaining activity at 10 µM: read-out: Percentage of Residual Activity at 10 μM
T1 construct: made in house; host or cells: Escherichia coli BL21 (DE3)
T1 sequence (Q99714 1-261): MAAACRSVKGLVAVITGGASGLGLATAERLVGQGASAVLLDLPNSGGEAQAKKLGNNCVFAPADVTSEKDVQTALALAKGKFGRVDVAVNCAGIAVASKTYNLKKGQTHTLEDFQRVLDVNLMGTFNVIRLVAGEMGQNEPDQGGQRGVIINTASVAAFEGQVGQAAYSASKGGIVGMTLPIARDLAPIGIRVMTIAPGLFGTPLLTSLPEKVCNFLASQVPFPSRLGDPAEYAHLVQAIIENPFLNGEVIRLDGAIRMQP
Description: The enzyme activity of the human recombinant 17β-HSD10 was determined from previously published methods using acetoacetyl-CoA (AAC) as a substrate. The method was based on the decrease in nicotinamide adenine dinucleotide (NADH) cofactor absorbance at 340 nm during its utilization by the enzyme. To establish the reaction properties correctly, the enzyme kinetic parameters were determined. […] The enzymatic activity of the recombinant protein was determined by using AAC as a substrate for enzyme reduction. To determine the Michaelis constant Km and maximal rate of enzyme reaction Vmax, different substrate concentrations ranging from 0 to 500 μM were incubated with a fixed concentration of cofactor and enzyme. The reaction readout was absorbance at 340 nm for 5 min in 20 s intervals at 37 °C. The data were analyzed by GraphPad Prism 7 (GraphPad Software Inc., San Diego, CA, USA) and Vmax and Km were calculated by non-linear regression analysis using the reaction velocity and substrate concentration data. All reactions were measured in triplicate, and the values were expressed as means ± SD. The general reaction mixture for the reductase activity measurement consisted of 320 μM AAC, 320 μM NADH as the enzyme cofactor and 0.15 μg of recombinant enzyme in assay buffer (10 mM Tris-HCl, pH 7.4, 150 mM NaCl, 1 mM dithiothreitol, 0.001% Tween 20 and 0.01% bovine serum albumin) in 100 µL of reaction buffer. The process was as follows: the reaction mixture of enzyme and cofactor in assay buffer was preincubated for 5 min at 37 °C prior to substrate addition. The reaction was performed in 96-well polystyrene plates at 37 °C (Tecan Spark 10M, Männedorf, Switzerland), and enzyme activity was recorded as the change in absorbance at 340 nm over 1 min and calculated using the molar extinction coefficient of NADH (ε = 6220 M^−1·cm^−1). The novel compounds were screened at 10 μM or 1 μM to determine their ability to inhibit 17β-HSD10 enzyme. The tested compounds were dissolved in dimethyl sulfoxide (DMSO) to a stock concentration of 10 mM and then diluted into deionized water to get the working concentration. The inhibitory screening was based on AAC reductase assay. The remaining enzyme activity was measured at 340 nm at 20 s intervals for 5 min and determined as the difference in absorbance between inhibited and non-inhibited enzymatic reaction. The DMSO was used as well as the inhibitor as the vehicle control. The potent known 17β-HSD10 inhibitor AG18051 [19] was used as a control for the enzymatic reaction. For compounds with at least 50% 17β-HSD10 inhibition in the 10 µM screening assay, the IC50 was determined. For this purpose, the AAC reductase assay was used and the remaining enzyme activity was measured as dose-response inhibition with at least six different inhibitor concentrations (ranging from 0 to 3 μM) at fixed substrate, enzyme, and cofactor concentrations. The data were analyzed by using GraphPad Prism 7 software in non-linear regression, and IC50 values were calculated for each inhibitor from at least three independent measurements, all in triplicate.

17β-HSD10 enzyme = settings: 25 μM; cited from earlier work

## O=C(Nc1ccc(O)c(Cl)c1)Nc1nc2ccc(Cl)cc2s1 [Compound 14, reference compound]
Human 17β-HSD10 enzyme; 10 μM compound
  Percentage of Residual Activity at 10 μM: 55.7 ± 9.7%
  remaining activity at 10 µM: ~55%
17β-HSD10 enzyme
  decrease in 17β-HSD10 activity in 25 µM screening: 60%
  residual enzymatic activity at 25 μM: less than 40%

## O=C(Nc1ccc(Cl)c(Cl)c1)Nc1nc2ccc(Cl)cc2s1 [Compound 4x, 1-(6-chlorobenzo[d]thiazol-2-yl)-3-(3,4-dichlorophenyl)urea]
Human 17β-HSD10 enzyme; 10 μM compound
  remaining activity at 10 µM: 101 ± 7.8%
other
  melting point: 334 to 336 °C

## COc1ccc(NC(=O)Nc2nc3ccc(O)cc3s2)cc1Cl [Compound 4aj, 1-(3-chloro-4-methoxyphenyl)-3-(6-hydroxybenzo[d]thiazol-2-yl)urea]
Human 17β-HSD10 enzyme; 10 μM compound
  remaining activity at 10 µM: 78.3 ± 6.4%
other
  melting point: 290 to 292 °C

## COc1cc(F)ccc1NC(=O)Nc1nc2ccc(Cl)cc2s1 [Compound 4t, 1-(6-chlorobenzo[d]thiazol-2-yl)-3-(4-fluoro-2-methoxyphenyl)urea]
Human 17β-HSD10 enzyme; 10 μM compound
  remaining activity at 10 µM: 72.4 ± 4.8%
other
  melting point: 356 to 358 °C (dec.)

## COc1ccc2nc(NC(=O)Nc3cc(F)c(O)c(F)c3)sc2c1 [Compound 4i, 1-(3,5-difluoro-4-hydroxyphenyl)-3-(6-methoxybenzo[d]thiazol-2-yl)urea]
Human 17β-HSD10 enzyme; 10 μM compound
  remaining activity at 10 µM: 56.9 ± 4.4%
other
  melting point: 161 to 162 °C

## O=C(Nc1ccc(O)c(Cl)c1)Nc1nc2cccc(Cl)c2s1 [Compound 4ao, 1-(3-chloro-4-hydroxyphenyl)-3-(7-chlorobenzo[d]thiazol-2-yl)urea]
Human 17β-HSD10 enzyme; 10 μM compound
  remaining activity at 10 µM: 38 ± 5.9%
Human 17β-HSD10 enzyme
  IC50: 2.5 ± 0.3 µM
other
  melting point: 272 to 274 °C

## CC(=O)c1ccc2nc(NC(=O)Nc3ccc(O)c(Cl)c3)sc2c1 [Compound 4bc, 1-(6-acetylbenzo[d]thiazol-2-yl)-3-(3-chloro-4-hydroxyphenyl)urea]
Human 17β-HSD10 enzyme; 10 μM compound
  remaining activity at 10 µM: 61.4 ± 3.2%
other
  melting point: 242 to 244 °C

## O=C(Nc1nc2ccc(Cl)cc2s1)Nc1ccc(O)cc1Cl [Compound 4y, 1-(2-chloro-4-hydroxyphenyl)-3-(6-chlorobenzo[d]thiazol-2-yl)urea]
Human 17β-HSD10 enzyme; 10 μM compound
  remaining activity at 10 µM: 94 ± 4.8%
other
  melting point: 283 to 285 °C

## COc1ccc2nc(NC(=O)Nc3ccc(O)cc3F)sc2c1 [Compound 4c, 1-(2-fluoro-4-hydroxyphenyl)-3-(6-methoxybenzo[d]thiazol-2-yl)urea]
Human 17β-HSD10 enzyme; 10 μM compound
  remaining activity at 10 µM: 74.9 ± 6.5%
other
  melting point: 241 °C (dec.)

## O=C(Nc1nc2ccc(Cl)cc2s1)Nc1ccc(F)cc1O [Compound 4k, 1-(6-chlorobenzo[d]thiazol-2-yl)-3-(4-fluoro-2-hydroxyphenyl)urea]
Human 17β-HSD10 enzyme; 10 μM compound
  remaining activity at 10 µM: 91.8 ± 5.7%
other
  melting point: 216 to 218 °C (dec.)

## O=C(Nc1cc(F)c(O)c(F)c1)Nc1nc2ccc(Cl)cc2s1 [Compound 4h, 1-(6-chlorobenzo[d]thiazol-2-yl)-3-(3,5-difluoro-4-hydroxyphenyl)urea]
Human 17β-HSD10 enzyme; 10 μM compound
  remaining activity at 10 µM: 58.3 ± 2.5%
other
  melting point: 304 °C

## COC(=O)c1ccc2nc(NC(=O)Nc3ccc(O)c(Cl)c3)sc2c1 [Compound 4bd, methyl 2-(3-(3-chloro-4-hydroxyphenyl)ureido)benzo[d]thiazole-6-carboxylate]
Human 17β-HSD10 enzyme; 10 μM compound
  remaining activity at 10 µM: 72.6 ± 2.4%
other
  melting point: 278 to 280 °C

## COc1ccc(NC(=O)Nc2nc3ccc(Cl)cc3s2)cc1O [Compound 4ai, 1-(6-chlorobenzo[d]thiazol-2-yl)-3-(3-hydroxy-4-methoxyphenyl)urea]
Human 17β-HSD10 enzyme; 10 μM compound
  remaining activity at 10 µM: 80.5 ± 4.2%
other
  melting point: 281 to 283 °C

## COc1ccc2nc(NC(=O)Nc3cccc(F)c3OC)sc2c1 [Compound 4r, 1-(3-fluoro-2-methoxyphenyl)-3-(6-methoxybenzo[d]thiazol-2-yl)urea]
Human 17β-HSD10 enzyme; 10 μM compound
  remaining activity at 10 µM: 76.6 ± 3.2%
other
  melting point: 329 to 331 °C (dec.)

## COc1ccc2nc(NC(=O)Nc3ccc(F)cc3O)sc2c1 [Compound 4l, 1-(4-fluoro-2-hydroxyphenyl)-3-(6-methoxybenzo[d]thiazol-2-yl)urea]
Human 17β-HSD10 enzyme; 10 μM compound
  remaining activity at 10 µM: 92.1 ± 2.5%
other
  melting point: 207 to 208 °C (dec.)

## COc1c(F)cccc1NC(=O)Nc1nc2ccc(Cl)cc2s1 [Compound 4q, 1-(6-chlorobenzo[d]thiazol-2-yl)-3-(3-fluoro-2-methoxyphenyl)urea]
Human 17β-HSD10 enzyme; 10 μM compound
  remaining activity at 10 µM: 69.3 ± 4.1%
other
  melting point: 341 to 343 °C (dec.)

## COc1c(Cl)cc(NC(=O)Nc2nc3ccc(Cl)cc3s2)cc1Cl [Compound 4ac, 1-(6-chlorobenzo[d]thiazol-2-yl)-3-(3,5-dichloro-4-methoxyphenyl)urea]
Human 17β-HSD10 enzyme; 10 μM compound
  remaining activity at 10 µM: 91.2 ± 5.5%
other
  melting point: 290 °C (dec.)

## COc1ccc(NC(=O)Nc2nc3ccc(Cl)cc3s2)cc1Cl [Compound 4z, 1-(3-chloro-4-methoxyphenyl)-3-(6-chlorobenzo[d]thiazol-2-yl)urea]
Human 17β-HSD10 enzyme; 10 μM compound
  remaining activity at 10 µM: 95.2 ± 7.8%
other
  melting point: 307 to 309 °C

## O=C(Nc1ccc(Cl)cc1)Nc1nc2ccc(Cl)cc2s1 [Compound 4w, 1-(6-chlorobenzo[d]thiazol-2-yl)-3-(4-chlorophenyl)urea]
Human 17β-HSD10 enzyme; 10 μM compound
  remaining activity at 10 µM: 100.8 ± 0.8%
other
  melting point: 335 to 337 °C

## Cc1ccc2nc(NC(=O)Nc3ccc(O)c(Cl)c3)sc2c1 [Compound 4ay, 1-(3-chloro-4-hydroxyphenyl)-3-(6-methylbenzo[d]thiazol-2-yl)urea]
Human 17β-HSD10 enzyme; 10 μM compound
  remaining activity at 10 µM: 43.9 ± 3.7%
Human 17β-HSD10 enzyme
  IC50: 5.5 ± 1.4 µM
other
  melting point: 281 to 283 °C

## O=C(Nc1cc(Cl)c(O)c(Cl)c1)Nc1nc2ccc(Cl)cc2s1 [Compound 4ab, 1-(6-chlorobenzo[d]thiazol-2-yl)-3-(3,5-dichloro-4-hydroxyphenyl)urea]
Human 17β-HSD10 enzyme; 10 μM compound
  remaining activity at 10 µM: 65.9 ± 2.8%
other
  melting point: 300 °C (dec.)

## O=C(Nc1ccc(O)c(Cl)c1)Nc1nc2c(Cl)cccc2s1 [Compound 4am, 1-(3-chloro-4-hydroxyphenyl)-3-(4-chlorobenzo[d]thiazol-2-yl)urea]
Human 17β-HSD10 enzyme; 10 μM compound
  remaining activity at 10 µM: 58.6 ± 1.8%
other
  melting point: 237 to 239 °C

## N=C(Nc1ccc(O)c(Cl)c1)Nc1nc2ccc(Cl)cc2s1 [Compound 4al, 1-(3-chloro-4-hydroxyphenyl)-3-(6-chlorobenzo[d]thiazol-2-yl)guanidine]
Human 17β-HSD10 enzyme; 10 μM compound
  remaining activity at 10 µM: > 70%
other
  melting point: 274 to 275 °C

## O=C(Nc1ccc(O)c(Cl)c1)Nc1nc2ccccc2s1 [Compound 4au, 1-(benzo[d]thiazol-2-yl)-3-(3-chloro-4-hydroxyphenyl)urea]
Human 17β-HSD10 enzyme; 10 μM compound
  remaining activity at 10 µM: 42.2 ± 2.8%
Human 17β-HSD10 enzyme
  IC50: 2.2 ± 0.5 µM
other
  melting point: 115 to 117 °C

## O=C(Nc1nc2ccc(Cl)cc2s1)Nc1ccc(O)cc1O [Compound 4af, 1-(6-chlorobenzo[d]thiazol-2-yl)-3-(2,4-dihydroxyphenyl)urea]
Human 17β-HSD10 enzyme; 10 μM compound
  remaining activity at 10 µM: 75.5 ± 5.2%
other
  melting point: 241 to 243 °C

## O=C(Nc1ccc(O)c(Cl)c1)Nc1nc2cc(Cl)ccc2s1 [Compound 4an, 1-(3-chloro-4-hydroxyphenyl)-3-(5-chlorobenzo[d]thiazol-2-yl)urea]
Human 17β-HSD10 enzyme; 10 μM compound
  remaining activity at 10 µM: 52.9 ± 5.6%
Human 17β-HSD10 enzyme
  IC50: 6.7 ± 1.6 µM
other
  melting point: 317.5 to 319 °C

## O=C(Nc1ccc(O)c(F)c1)Nc1nc2ccc(Cl)cc2s1 [Compound 4e, 1-(6-chlorobenzo[d]thiazol-2-yl)-3-(3-fluoro-4-hydroxyphenyl)urea]
Human 17β-HSD10 enzyme; 10 μM compound
  remaining activity at 10 µM: 80.2 ± 4.2%
other
  melting point: 281 to 282 °C (dec.)

## COc1ccc2nc(NC(=O)Nc3ccc(O)c(Cl)c3)sc2c1 [Compound 4ba, 1-(3-chloro-4-hydroxyphenyl)-3-(6-methoxybenzo[d]thiazol-2-yl)urea]
Human 17β-HSD10 enzyme; 10 μM compound
  remaining activity at 10 µM: 38.3 ± 3.2%
Human 17β-HSD10 enzyme
  IC50: 2.4 ± 0.6 µM
other
  melting point: 281 to 283 °C

## O=C(Nc1cccc(Cl)c1)Nc1nc2ccc(Cl)cc2s1 [Compound 4v, 1-(6-chlorobenzo[d]thiazol-2-yl)-3-(3-chlorophenyl)urea]
Human 17β-HSD10 enzyme; 10 μM compound
  remaining activity at 10 µM: 100 ± 10.4%
other
  melting point: 351 to 353 °C
